# Laboratory results taken from patent US20050129610A1, “Imaging agents and methods of imaging alpha7-nicotinic cholinergic receptor” (Johns Hopkins University, priority 2003, published 2005).
# Like-named read-outs stand apart in the source and are kept apart here.
# Key:
# rat α7 nAChR = rat α7 nAChR (Rattus norvegicus, UniProt Q05941); experiment: Receptor binding assay, rat α7 nAChR
# Protocol: (§1) Receptor Binding Assays. The affinities of 1-4 for the rat α4β2 and α7 nAChRs were determined as described previously (Mullen, et al., J. Med. Chem.; 2000;43(22):4045-50). Affinities for the rat 5-HT3 receptor were also determined as described previously (Macor, et al., Bioorg. Med. Chem. Lett. 2001;11(3):319-21). All Ki determinations were done using 5-7 concentrations. […] There was a wide margin in selectivity compared to the α4β2 receptor subtype. Also included are the relative binding affinities to the 5-HT3 receptor, which has high sequence homology to the α7-nAChR.
# rat α4β2 nAChR = rat α4β2 nAChR (Rattus norvegicus, UniProt P09483+P12390); experiment: Receptor binding assay, rat α4β2 nAChR (selectivity); details: binding selectivity vs rat α4β2 nAChR
# Protocol: as §1
# rat 5-HT3 receptor = target: T1, rat 5-HT3 receptor (Rattus norvegicus, UniProt P35563); experiment: Receptor binding assay, rat 5-HT3 receptor (selectivity); details: binding selectivity vs rat 5-HT3 receptor
# T1 sequence (P35563 24-483): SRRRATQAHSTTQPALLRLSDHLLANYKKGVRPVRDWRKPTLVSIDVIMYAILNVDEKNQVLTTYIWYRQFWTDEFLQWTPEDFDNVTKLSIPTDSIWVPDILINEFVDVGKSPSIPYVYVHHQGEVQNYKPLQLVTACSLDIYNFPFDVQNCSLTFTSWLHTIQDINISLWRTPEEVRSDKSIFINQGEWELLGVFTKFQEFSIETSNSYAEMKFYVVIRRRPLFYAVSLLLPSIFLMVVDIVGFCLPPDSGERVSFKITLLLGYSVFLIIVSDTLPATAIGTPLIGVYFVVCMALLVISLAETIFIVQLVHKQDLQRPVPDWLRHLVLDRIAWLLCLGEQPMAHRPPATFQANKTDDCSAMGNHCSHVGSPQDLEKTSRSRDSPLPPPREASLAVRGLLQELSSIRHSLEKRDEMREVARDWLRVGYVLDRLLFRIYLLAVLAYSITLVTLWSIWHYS
# Protocol: as §1
# [1] = Rodent in vivo biodistribution (brain kinetics); design: species or system male CD-1 mice; details: for Brain distribution, CB: cerebellum; for Brain distribution, CB / Brain distribution, CTX / Brain distribution, HIPP / Brain distribution, HYPO / Brain distribution, STR / Brain distribution, THAL: mice; for Brain distribution, CTX: cortex; for Brain distribution, HIPP: hippocampus; for Brain distribution, HYPO: hypothalamus; for Uptake within the brain (in words): i.v. radiotracer; for Brain distribution, STR: striatum; for Brain distribution, THAL: thalamus; for Uptake/retention in target tissue (hippocampus): mouse hippocampus vs other brain substructures, FIG. 1 / FIG. 3
# Protocol: (§2) Rodent In Vivo Biodistribution Studies of 1-4. Male CD-1 mice weighing between 20 and 25 g received an injection of 3.7 MBq (100 μCi) for 1 and 2 and 0.67 MBq ([…]) for 3 and 4 through the tail vein. The corresponding amounts administered were 0.2-0.8 μg/kg for 1 and 2 and 0.01-0.02 μg/kg for 3 and 4. For kinetic studies of 1-4, the mice were killed by cervical dislocation at 5, 15, 30 and 60 min after intravenous injection of radiotracer in 200 μL saline vehicle. The brains were removed and placed on ice, and the cerebellum, olfactory bulb, hypothalamus, hippocampus, striatum, cortex, brain stem and thalamus were harvested. A 45 min time point was obtained for 2 and one at 120 min for 3 and 4. The tissue samples were weighed and their radioactivity determined in an automated □ counter (1282 Compugamma CS; Pharmacia/LKB Nuclear Inc., Gaithersburg, Md.). The radioactivity concentration in aliquots of the injected tracer were determined along with the samples and served as standards for the calculation of percentage injected dose per gram of tissue (% ID/g). To assess binding specificity, subgroups of mice were treated with 10 mg/kg nicotine (for D or increasing doses of unlabeled 4 (0.01-10 mg/kg) 5 min prior to injection of radiotracer. Mice were killed at 30 and 60 min after blockade for 3 and 4, respectively.
# α7-nAChR = target: T2, α7-nAChR (Mus musculus, UniProt P49582); experiment: In vivo binding specificity (receptor blockade) study; design: species or system male CD-1 mice
# T2 construct: Male CD-1 mice weighing between 20 and 25 g received an injection; from tissue; host or cells: brain of living male CD-1 mice (hippocampus, cortex and other regions)
# Protocol: as §2
# [2] = rat α7 nAChR, nonradioactive analogs, 5-7 concentrations, read-out: Ki
# Chain of rat α7 nAChR (Q05941 23-502): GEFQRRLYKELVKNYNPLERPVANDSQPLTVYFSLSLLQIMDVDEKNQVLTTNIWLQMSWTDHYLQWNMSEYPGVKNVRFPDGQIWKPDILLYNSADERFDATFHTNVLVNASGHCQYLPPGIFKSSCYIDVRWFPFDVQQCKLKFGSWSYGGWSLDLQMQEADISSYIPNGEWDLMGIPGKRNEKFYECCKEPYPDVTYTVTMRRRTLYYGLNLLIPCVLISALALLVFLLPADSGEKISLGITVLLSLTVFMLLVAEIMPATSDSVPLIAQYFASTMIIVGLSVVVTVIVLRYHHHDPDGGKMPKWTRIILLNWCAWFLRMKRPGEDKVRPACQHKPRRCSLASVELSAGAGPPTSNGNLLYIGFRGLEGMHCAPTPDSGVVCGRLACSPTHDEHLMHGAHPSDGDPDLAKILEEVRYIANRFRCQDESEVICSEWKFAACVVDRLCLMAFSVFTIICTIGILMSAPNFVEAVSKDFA
# T2 sequence (P49582 23-502): as the sequence (Q05941 23-502) above, with A402T counted along it
# Chain of rat α4β2 nAChR (P09483 31-630): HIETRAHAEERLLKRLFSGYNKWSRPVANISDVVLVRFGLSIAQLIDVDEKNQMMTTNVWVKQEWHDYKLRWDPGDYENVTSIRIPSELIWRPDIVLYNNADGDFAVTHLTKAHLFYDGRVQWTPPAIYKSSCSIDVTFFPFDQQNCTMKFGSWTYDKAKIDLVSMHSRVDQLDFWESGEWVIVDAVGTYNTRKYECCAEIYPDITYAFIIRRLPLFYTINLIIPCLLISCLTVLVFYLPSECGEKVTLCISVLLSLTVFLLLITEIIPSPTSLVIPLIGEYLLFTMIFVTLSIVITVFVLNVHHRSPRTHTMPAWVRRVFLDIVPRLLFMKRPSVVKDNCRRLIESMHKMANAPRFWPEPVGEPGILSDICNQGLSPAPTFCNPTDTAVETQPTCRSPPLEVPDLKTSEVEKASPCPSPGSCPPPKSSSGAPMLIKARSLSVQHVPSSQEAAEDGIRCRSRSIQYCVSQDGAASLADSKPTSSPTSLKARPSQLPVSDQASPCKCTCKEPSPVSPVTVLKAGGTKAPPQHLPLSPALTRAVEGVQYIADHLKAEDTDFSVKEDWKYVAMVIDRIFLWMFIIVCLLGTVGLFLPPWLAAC
# Chain of rat α4β2 nAChR (P12390 25-500): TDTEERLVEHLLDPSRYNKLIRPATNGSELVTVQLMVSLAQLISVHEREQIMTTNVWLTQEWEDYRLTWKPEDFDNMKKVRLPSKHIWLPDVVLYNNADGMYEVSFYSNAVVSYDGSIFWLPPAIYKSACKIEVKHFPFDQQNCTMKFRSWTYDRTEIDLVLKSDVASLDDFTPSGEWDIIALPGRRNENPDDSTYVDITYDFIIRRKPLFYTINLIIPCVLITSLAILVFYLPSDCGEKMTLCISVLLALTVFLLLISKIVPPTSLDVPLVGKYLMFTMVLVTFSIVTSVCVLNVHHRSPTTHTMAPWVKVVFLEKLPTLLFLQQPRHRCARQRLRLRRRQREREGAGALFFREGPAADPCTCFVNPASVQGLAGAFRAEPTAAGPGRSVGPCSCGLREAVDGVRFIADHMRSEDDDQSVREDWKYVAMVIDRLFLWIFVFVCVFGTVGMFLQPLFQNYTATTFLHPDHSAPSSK
smiles,measurement,setting,value
"[11CH3]Sc1ccc(C(=O)NC2CN3CCC2CC3)cc1 [Compound 2, N—(R)-1-aza-bicyclo[2.2.2]oct-3-yl-4-[^11C]methylsulfanyl-benzamide]",Ki,rat α7 nAChR,5.8 nM
same,α7/α4,rat α4β2 nAChR,"14,000 (1)"
same,α7/5-HT3,rat 5-HT3 receptor,1100 (1)
same,"Brain distribution, CB",[1]; 5 min post i.v. injection,0.23 ± 0.01 % ID/g
same,"Brain distribution, CB",[1]; 15 min post i.v. injection,0.26 ± 0.04 % ID/g
same,"Brain distribution, CB",[1]; 30 min post i.v. injection,0.14 ± 0.03 % ID/g
same,"Brain distribution, CB",[1]; 45 min post i.v. injection,0.09 ± 0.01 % ID/g
same,"Brain distribution, CB",[1]; 60 min post i.v. injection,0.08 ± 0.01 % ID/g
same,"Brain distribution, CTX",[1]; 5 min post i.v. injection,0.16 ± 0.04 % ID/g
same,"Brain distribution, CTX",[1]; 15 min post i.v. injection,0.17 ± 0.03 % ID/g
same,"Brain distribution, CTX",[1]; 30 min post i.v. injection,0.14 ± 0.05 % ID/g
same,"Brain distribution, CTX",[1]; 45 min post i.v. injection,0.10 ± 0.02 % ID/g
same,"Brain distribution, CTX",[1]; 60 min post i.v. injection,0.10 ± 0.02 % ID/g
same,"Brain distribution, HIPP",[1]; 5 min post i.v. injection,0.15 ± 0.01 % ID/g
same,"Brain distribution, HIPP",[1]; 15 min post i.v. injection,0.24 ± 0.04 % ID/g
same,"Brain distribution, HIPP",[1]; 30 min post i.v. injection,0.14 ± 0.03 % ID/g
same,"Brain distribution, HIPP",[1]; 45 min post i.v. injection,0.13 ± 0.02 % ID/g
same,"Brain distribution, HIPP",[1]; 60 min post i.v. injection,0.12 ± 0.02 % ID/g
same,"Brain distribution, HYPO",[1]; 5 min post i.v. injection,0.30 ± 0.02 % ID/g
same,"Brain distribution, HYPO",[1]; 15 min post i.v. injection,0.55 ± 0.05 % ID/g
same,"Brain distribution, HYPO",[1]; 30 min post i.v. injection,0.22 ± 0.04 % ID/g
same,"Brain distribution, HYPO",[1]; 45 min post i.v. injection,0.22 ± 0.09 % ID/g
same,"Brain distribution, HYPO",[1]; 60 min post i.v. injection,0.27 ± 0.05 % ID/g
same,Regional selectivity of brain uptake,"[1]; mouse brain, all time points, in words",no regional selectivity
same,Uptake within the brain (in words),[1]; mouse brain,limited uptake
same,"Brain distribution, STR",[1]; 5 min post i.v. injection,0.22 ± 0.06 % ID/g
same,"Brain distribution, STR",[1]; 15 min post i.v. injection,0.37 ± 0.05 % ID/g
same,"Brain distribution, STR",[1]; 30 min post i.v. injection,0.16 ± 0.03 % ID/g
same,"Brain distribution, STR",[1]; 45 min post i.v. injection,0.15 ± 0.05 % ID/g
same,"Brain distribution, STR",[1]; 60 min post i.v. injection,0.18 ± 0.05 % ID/g
same,"Brain distribution, THAL",[1]; 5 min post i.v. injection,0.18 ± 0.02 % ID/g
same,"Brain distribution, THAL",[1]; 15 min post i.v. injection,0.26 ± 0.09 % ID/g
same,"Brain distribution, THAL",[1]; 30 min post i.v. injection,0.13 ± 0.03 % ID/g
same,"Brain distribution, THAL",[1]; 45 min post i.v. injection,0.10 ± 0.01 % ID/g
same,"Brain distribution, THAL",[1]; 60 min post i.v. injection,0.14 ± 0.03 % ID/g
"[125I]c1occc1-c1cnc2c(c1)CC1(CN3CCC1CC3)O2 (stereo not drawn) [Compound 4, (2′R)-5′-(2-[^125I]iodo-3-furanyl)spiro[1-azabicyclo[2.2.2]octane]-3,2′(3′H)-furo[2,3-b]pyridine]",Ki,rat α7 nAChR; [2],0.26 nM
same,Uptake within the brain (in words),[1]; mouse brain,gained ready access to the brain
same,Uptake/retention in target tissue (hippocampus),[1],modest but higher uptake in target tissue (hippocampus) than within other brain substructures
same,Receptor blockade study,"α7-nAChR; unlabeled 4 (0.01-10 mg/kg) 5 min before radiotracer, mice killed at 60 min, FIG. 4",significant blockade in the target tissue and slightly less so in cortex
O=C(NC1CN2CCC1CC2)c1ccc(Br)cc1 (stereo not drawn) [3 (precursor)],Ki,rat α7 nAChR; [2],18 nM
same,α7/α4,rat α4β2 nAChR,36000 (1)
same,α7/5-HT3,rat 5-HT3 receptor,280 (1)
"O=C(NC1CN2CCC1CC2)c1ccc([125I])cc1 [Compound 3, N-(R)-1-Aza-bicyclo[2.2.2]oct-3-yl-4-[^125I]iodo-benzamide]",Uptake values within the brain,"[1]; mouse brain, FIG. 1",< 0.4 % ID/g
same,Uptake/retention in target tissue (hippocampus),[1],"retention within hippocampus, a target tissue, was demonstrated"
same,Blocking study (nicotine blockade),"α7-nAChR; 10 mg/kg nicotine 5 min before radiotracer, mice killed at 30 min, FIG. 2","failed to demonstrate regionally-selective blockade, although significantly decreased radiotracer uptake was demonstrated in the regions studied"
